Measurements taken from PubChem BioAssay AID274 (DTP/NCI, 2004).
“And” between values parts separate entries of the source, which are not always exact repeats. Identical values can stand only once. Inconclusive results and toxic doses are left out.

Test system: BDF1 mice, Lewis lung carcinoma iv, survival T/C
Experiment: NCI In Vivo Anticancer Drug Screen. Data for tumor model Lewis Lung Carcinoma (intravenous) in B6D2F1 (BDF1) mice
Details: endpoint: median survival time, higher = longer survival
Description: The antitumor activity of compounds was measured in mice bearing transplantable tumors. Survival or tumor size were measured and the results are expressed as the measurement made in the treated group (T) divided by the measurement made in the vehicle treated control group (C). The tumor model used in this assay is Lewis Lung Carcinoma (intravenous) in B6D2F1 (BDF1) mice

[1] = dose: 25.0 mg/kg/injection, schedule: Q01DX009 (ip), vehicle: Klucel (hydroxypropylcellulose) (HPC)
[2] = dose: 12.5 mg/kg/injection, schedule: Q01DX009 (ip), vehicle: saline with Tween-80
[3] = dose: 25.0 mg/kg/injection, schedule: Q01DX009 (ip), vehicle: saline with Tween-80
[4] = dose: 50.0 mg/kg/injection, schedule: Q01DX009 (ip), vehicle: saline with Tween-80
[5] = dose: 100.0 mg/kg/injection, schedule: Q01DX009 (ip), vehicle: saline with Tween-80

C=C(C)/C([O-])=N/[N+](C)(C)CC(O)CCCCCCCCCCCC (stereo not drawn)
T/C (dose: 12.5 mg/kg/injection, schedule: Q01DX001 (ip), vehicle: saline): 99 % of control | T/C (dose: 50.0 mg/kg/injection, schedule: Q01DX001 (ip), vehicle: saline): 86 % of control | T/C (dose: 100.0 mg/kg/injection, schedule: Q01DX001 (ip), vehicle: saline): 92 % of control | T/C (dose: 200.0 mg/kg/injection, schedule: Q01DX001 (ip), vehicle: saline): 104 % of control | T/C (dose: 400.0 mg/kg/injection, schedule: Q01DX001 (ip), vehicle: saline): 87 % of control

O=NN(CCCl)C(=O)NCCCl
T/C (dose: 1.5 mg/kg/injection, schedule: Q01DX009 (ip), vehicle: Klucel (hydroxypropylcellulose) (HPC)): 122 % of control | T/C (dose: 3.0 mg/kg/injection, schedule: Q01DX009 (ip), vehicle: Klucel (hydroxypropylcellulose) (HPC)): 305 % of control | T/C (dose: 6.0 mg/kg/injection, schedule: Q01DX009 (ip), vehicle: Klucel (hydroxypropylcellulose) (HPC)): 163 % of control | T/C (dose: 10.0 mg/kg/injection, schedule: Q01DX001 (ip), vehicle: saline + alcohol): 116 % of control | T/C (dose: 12.0 mg/kg/injection, schedule: Q01DX009 (ip), vehicle: Klucel (hydroxypropylcellulose) (HPC)): 304 % of control | T/C (dose: 20.0 mg/kg/injection, schedule: Q01DX001 (ip), vehicle: saline + alcohol): 124 % of control | T/C (dose: 20.48 mg/kg/injection, schedule: Q01DX001 (iv), vehicle: saline + alcohol): 215 % of control | T/C (dose: 25.6 mg/kg/injection, schedule: Q01DX001 (iv), vehicle: saline + alcohol): 268 % of control | T/C (dose: 32.0 mg/kg/injection, schedule: Q01DX001 (iv), vehicle: saline + alcohol): 267 % of control | T/C (dose: 40.0 mg/kg/injection, schedule: Q01DX001 (ip), vehicle: saline + alcohol): 109 % of control | T/C (dose: 40.0 mg/kg/injection, schedule: Q01DX001 (iv), vehicle: saline + alcohol): 268 % of control | T/C (dose: 50.0 mg/kg/injection, schedule: Q01DX001 (ip), vehicle: saline + alcohol): 117 % of control | T/C (dose: 50.0 mg/kg/injection, schedule: Q01DX001 (iv), vehicle: saline + alcohol): 268 % of control | T/C (dose: 62.5 mg/kg/injection, schedule: Q01DX001 (iv), vehicle: saline + alcohol): 268 % of control

C=C1C(=O)OCC2C(C(=O)O)=CC3C(C)C(C)=CC123 (stereo not drawn)
T/C (dose: 2.5 mg/kg/injection, schedule: Q01DX009 (ip), vehicle: Klucel (hydroxypropylcellulose) (HPC)): 87 % of control | T/C (dose: 5.0 mg/kg/injection, schedule: Q01DX009 (ip), vehicle: Klucel (hydroxypropylcellulose) (HPC)): 92 % of control | T/C (dose: 10.0 mg/kg/injection, schedule: Q01DX009 (ip), vehicle: Klucel (hydroxypropylcellulose) (HPC)): 95 % of control | T/C (dose: 40.0 mg/kg/injection, schedule: Q01DX009 (ip), vehicle: Klucel (hydroxypropylcellulose) (HPC)): 91 % of control | T/C (dose: 80.0 mg/kg/injection, schedule: Q01DX009 (ip), vehicle: Klucel (hydroxypropylcellulose) (HPC)): 92 % of control

COc1cc2c[n+](C)c3c4cc5c(cc4ccc3c2cc1OC)OCO5 (tested in a mixture with another compound)
T/C (dose: 3.13 mg/kg/injection, schedule: Q01DX009 (ip), vehicle: Klucel (hydroxypropylcellulose) (HPC)): 103 % of control | T/C (dose: 6.25 mg/kg/injection, schedule: Q01DX009 (ip), vehicle: Klucel (hydroxypropylcellulose) (HPC)): 184 % of control | T/C (dose: 12.5 mg/kg/injection, schedule: Q01DX009 (ip), vehicle: Klucel (hydroxypropylcellulose) (HPC)): 120 % of control | T/C [1]: 120 % of control

O=S(=O)(c1ccc(NC(C(O)C(O)C(O)C(O)CO)S(=O)(=O)O)cc1)c1ccc(NC(C(O)C(O)C(O)C(O)CO)S(=O)(=O)O)cc1 (stereo not drawn)
T/C (dose: 72.0 mg/kg/injection, schedule: Q01DX007 (ip), vehicle: saline): 90 % of control | T/C (dose: 102.9 mg/kg/injection, schedule: Q01DX007 (ip), vehicle: saline): 95 % of control | T/C (dose: 147.0 mg/kg/injection, schedule: Q01DX007 (ip), vehicle: saline): 86 % of control | T/C (dose: 210.0 mg/kg/injection, schedule: Q01DX007 (ip), vehicle: saline): 96 % of control | T/C (dose: 300.0 mg/kg/injection, schedule: Q01DX007 (ip), vehicle: saline): 94 % of control

COc1cc(C(C)(C)C)cc(OC)c1C(O)(c1c(OC)cc(C(C)(C)C)cc1OC)c1c(OC)cc(C(C)(C)C)cc1OC
T/C (dose: 6.25 mg/kg/injection, schedule: Q01DX009 (ip), vehicle: saline with Tween-80): 99 % of control and 106 % of control | T/C [2]: 98 % of control and 99 % of control | T/C [3]: 97 % of control and 102 % of control | T/C [4]: 99 % of control

CCc1nc(N)nc(N)c1-c1ccc(Cl)c(Cl)c1.[Cl][Pd][Cl]
T/C (dose: 12.5 mg/kg/injection, schedule: Q01DX009 (ip), vehicle: saline): 114 % of control

CC[C@]1(O)C[C@H]2CN(CCc3c([nH]c4ccccc34)[C@@](C(=O)OC)(c3cc4c(cc3OC)N(C=O)[C@H]3[C@@](O)(C(=O)OC)[C@H](OC(C)=O)[C@]5(CC)C=CCN6CC[C@]43[C@@H]65)C2)C1
T/C (dose: 0.36 mg/kg/injection, schedule: Q04DX003 (ip), vehicle: saline): 98 % of control | T/C (dose: 0.6 mg/kg/injection, schedule: Q04DX003 (ip), vehicle: saline): 105 % of control | T/C (dose: 1.0 mg/kg/injection, schedule: Q04DX003 (ip), vehicle: saline): 120 % of control | T/C (dose: 130.0 micrograms/kg/injection, schedule: Q01DX009 (ip), vehicle: saline): 106 % of control | T/C (dose: 216.0 micrograms/kg/injection, schedule: Q01DX009 (ip), vehicle: saline): 111 % of control

CCN1CSC(=S)N(CC)C1
T/C [3]: 103 % of control | T/C [4]: 101 % of control | T/C [5]: 99 % of control

CC1=C(/C=C/C(C)=C/C=C/C(C)=C/C=O)C(C)(C)CCC1
T/C (dose: 4.0 mg/kg/injection, schedule: Q01DX005 (ip), vehicle: saline with Tween-80): 96 % of control | T/C (dose: 8.0 mg/kg/injection, schedule: Q01DX005 (ip), vehicle: saline with Tween-80): 96 % of control and 109 % of control | T/C (dose: 16.0 mg/kg/injection, schedule: Q01DX005 (ip), vehicle: saline with Tween-80): 95 % of control and 116 % of control | T/C (dose: 32.0 mg/kg/injection, schedule: Q01DX005 (ip), vehicle: saline with Tween-80): 108 % of control | T/C (dose: 64.0 mg/kg/injection, schedule: Q01DX005 (ip), vehicle: saline with Tween-80): 95 % of control and 96 % of control

COc1cc(C)c(C2NC(=O)c3ccccc3N2)cc1C (stereo not drawn)
T/C [1]: 105 % of control | T/C (dose: 50.0 mg/kg/injection, schedule: Q01DX009 (ip), vehicle: Klucel (hydroxypropylcellulose) (HPC)): 97 % of control | T/C (dose: 100.0 mg/kg/injection, schedule: Q01DX009 (ip), vehicle: Klucel (hydroxypropylcellulose) (HPC)): 92 % of control | T/C (dose: 200.0 mg/kg/injection, schedule: Q01DX009 (ip), vehicle: Klucel (hydroxypropylcellulose) (HPC)): 97 % of control | T/C (dose: 400.0 mg/kg/injection, schedule: Q01DX009 (ip), vehicle: Klucel (hydroxypropylcellulose) (HPC)): 101 % of control

NC(Cc1cc([N+](=O)[O-])ccc1CN(CCCl)CCCl)C(=O)O (stereo not drawn)
T/C (dose: 3.24 mg/kg/injection, schedule: Q04DX003 (ip), vehicle: Klucel (hydroxypropylcellulose) (HPC)): 102 % of control | T/C (dose: 5.4 mg/kg/injection, schedule: Q04DX003 (ip), vehicle: Klucel (hydroxypropylcellulose) (HPC)): 115 % of control | T/C (dose: 15.0 mg/kg/injection, schedule: Q04DX003 (ip), vehicle: Klucel (hydroxypropylcellulose) (HPC)): 102 % of control

COc1cc2oc(=O)ccc2cc1[C@@H]1OC(=O)C2(C)O[C@@H]12 (stereo partly drawn)
T/C (dose: 0.31 mg/kg/injection, schedule: Q01DX009 (ip), vehicle: water): 96 % of control | T/C (dose: 0.62 mg/kg/injection, schedule: Q01DX009 (ip), vehicle: water): 104 % of control | T/C (dose: 1.25 mg/kg/injection, schedule: Q01DX009 (ip), vehicle: water): 101 % of control | T/C (dose: 2.5 mg/kg/injection, schedule: Q01DX009 (ip), vehicle: water): 101 % of control | T/C (dose: 5.0 mg/kg/injection, schedule: Q01DX009 (ip), vehicle: water): 100 % of control

CC[C@H]1CN2CCc3cc(OC)c(OC)cc3[C@@H]2C[C@@H]1C[C@H]1NCCc2cc(O)c(OC)cc21
T/C (dose: 2.0 mg/kg/injection, schedule: Q01DX009 (ip), vehicle: saline): 109 % of control | T/C (dose: 4.0 mg/kg/injection, schedule: Q01DX009 (ip), vehicle: saline): 100 % of control | T/C (dose: 8.0 mg/kg/injection, schedule: Q01DX009 (ip), vehicle: saline): 116 % of control | T/C (dose: 16.0 mg/kg/injection, schedule: Q01DX009 (ip), vehicle: saline): 116 % of control

O=[N+]([O-])c1ccc(-n2[nH]nnc2=S)cc1
T/C [2]: 92 % of control | T/C [3]: 101 % of control | T/C [4]: 92 % of control | T/C [5]: 92 % of control | T/C (dose: 200.0 mg/kg/injection, schedule: Q01DX009 (ip), vehicle: saline with Tween-80): 93 % of control
